Ends that are not written are not given here.
Key:
[1] = test system: methicillin resistant Staphylococcus aureus (MRSA) biofilm; conditions: approximate peptide concentration […] (around 3 μg/ml); compared to untreated samples
How it was run: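 Peptide was present from inoculation onward, with bacteria seeded at 1/100 from overnight cultures into BM2 biofilm medium or Luria Broth. Crystal violet staining of surface-attached cells (A595) quantified biofilm reduction at 22–46 h. K. pneumoniae was additionally screened in a real-time Bioflux flow device for some peptides.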

[2] = test system: human peripheral blood mononuclear cells (MCP-1); assay: SPOT-synthesized derivative screen: production of chemokine MCP-1; assay type: cell-based; conditions: Table 12, No LPS, human PBMC, peptide at ~18-24 μM; for MCP1: background subtracted 139 (HH2 derivatives), 170 (1018 derivatives), 242 (1002 and hybrid peptides) pg/ml
How it was run: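 MCP-1 was quantified by capture ELISA in cleared culture supernatants of treated human peripheral blood mononuclear cells. Cells came from heparinized volunteer blood via Ficoll gradient and were seeded at 0.75 to 1×10^6 cells/ml (37 °C, 5% CO2).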

[3] = test system: LPS-stimulated human peripheral blood mononuclear cells (IL1-β); assay type: cell-based; conditions: Table 12, cells stimulated with 10 ng/ml LPS; for IL1β Production: LPS alone 1313 (HH2 derivatives), 1927 (1018 derivatives), 2455 (1002 and hybrid peptides) pg/ml

Substance	% Biofilm inhibition [1] [%]	Fold increase in MCP1 cf. untreated cells [2]	MCP1 [2] [pg/mL]	Fold change in IL1β relative to no peptide LPS stimulated cells [3]	IL1β Production [3] [pg/mL]
1002-L11: single substituted 1002 peptide (VQRWLIVWRILK-NH2) [Peptide 1002-L11]	61	9.5	2048.4	0.05	127
1018-K10: single substituted 1018 peptide (VRLIVAVRIKRR-NH2) [Peptide 1018-K10]	63	3.3	390	0.24	310
HH2-W7: single substituted HH2 peptide (VQLRIRWAVIRA-NH2)	70	9.2	1395	0.88	1154
HH2-Q1: single substituted HH2 peptide (QQLRIRVAVIRA-NH2)	57	65	10838	0.89	1171
HH2-W6: single substituted HH2 peptide (VQLRIWVAVIRA-NH2)	56	4.1	534	0.55	718
1018-R5: single substituted 1018 peptide (VRLIRAVRIWRR-NH2) [Peptide 1018-R5]	4	0.8	-41	1.50	1973
HH2-R9: single substituted HH2 peptide (VQLRIRVARIRA-NH2)	65	3.4	406	1.60	2099
HH2-V6: single substituted HH2 peptide (VQLRIVVAVIRA-NH2)	39	40	6624	0.53	694
HH2-L12: single substituted HH2 peptide (VQLRIRVAVIRL-NH2)	51	24	3916	0.23	301
HH2-G6: single substituted HH2 peptide (VQLRIGVAVIRA-NH2)	33	8.6	1287	1.08	1423
1002-K5: single substituted 1002 peptide (VQRWKIVWRIRK-NH2) [Peptide 1002-K5]	79	3.4	592.6	0.14	339
HH2-L8: single substituted HH2 peptide (VQLRIRVLVIRA-NH2)	50	107	17953	0.55	725
1002-V9: single substituted 1002 peptide (VQRWLIVWVIRK-NH2) [Peptide 1002-V9]	47	1.5	131.8	0.05	134
HH2-A4: single substituted HH2 peptide (VQLAIRVAVIRA-NH2)	42	5.0	672	1.52	2000
HH2-W1: single substituted HH2 peptide (WQLRIRVAVIRA-NH2)	67	29	4725	0.66	866
1002-R8: single substituted 1002 peptide (VQRWLIVRRIRK-NH2) [Peptide 1002-R8]	23	1.0	-11.7	0.36	892
1002-V12: single substituted 1002 peptide (VQRWLIVWRIRV-NH2) [Peptide 1002-V12]	67	1.3	76.4	0.05	127
1002-G1: single substituted 1002 peptide (GQRWLIVWRIRK-NH2) [Peptide 1002-G1]	68	14.8	3335.7	0.05	127
1002-K10: single substituted 1002 peptide (VQRWLIVWRKRK-NH2) [Peptide 1002-K10]	0	0.9	-32.5	0.05	127
1002-A12: single substituted 1002 peptide (VQRWLIVWRIRA-NH2) [Peptide 1002-A12]	37	1.4	91.3	0.05	127
